Like-named read-outs stand apart in the source and are kept apart here.
Key:
[1] = test system: MDA MB 231 tumor xenografts; assay: MDA MB 231 tumor xenograft growth in athymic nude mice; type: in vivo; conditions: for mean tumor volume: 45 mg/kg i.p. 3 times a week
Method: (§1) Animal experiments were performed in accordance with current Italian legislation and the animal protocol has been reviewed and approved by Italian Ministero della Salute (authorization n. 886/2020-PR). The study was designed to verify the effect of newly synthetized molecule with DDX3X inhibitor activity administered via i.p at a concentration of 45 mg/kg on the tumor growth of xenograft MDA MB 231 human breast cancer cells. In the study, n refers to the number of tumors expressed on both flanks of the animals. The sample size was calculated by g-power calculator placing a predictable large (2-fold increase) effect size, alpha as 0.05, and a confidence interval of 95% and we set our experimental unit number of 10 (corresponding to 5 animals). Total number of animals used in the study was 10. Six-week-old athymic nude mice were purchased from Charles River Laboratories. Five animals in each cage acclimatized in our animal facilities for 5 days in individually ventilated cages. Animals were fed with the lab diet ad libitum and water was accessible at all times and kept under standard specific pathogen-free conditions of 12 h light/dark cycle. Observational analysis was performed at the beginning of experimental procedure to ensure animal wellbeing (Table S1).
To establish xenograft tumors, MDA MB 231 cells were cultured in media as described above. On the day of experiment, cells (2.8 × 10^6) were suspended in 150 μL PBS 1:1 Matrigel and injected subcutaneously on both size of the flank region of nude mice. In order to determine tumor volume by manual caliper, the greatest longitudinal diameter (length) and the greatest transverse diameter (width) were determined. Tumor volumes based on caliper measurements were calculated by the modified ellipsoidal formula Tumor volume = 1/2(length × width^2).
Group allocation and treatments: once tumors reached a mean size of 24.82 ± 2.56 mm^3, animals were allocated in two groups by minimization strategy according to tumor size: the treatment group received 100 μL of a 45 mg/kg FHP01 suspended in a vehicle consisting of 10% DMSO, 5% Tween 80, 85% H2O via i.p. injection three times per week for 4 weeks; the control group included animals treated with 100 μL of vehicle (10% DMSO, 5% Tween 80, 85% H2O). One control animal reached HEP and was sacrificed and was not account for in the analysis. […]
For the final statistics, the number of tumors analyzed was 8 in the control group (one animal died for unknown reasons as certified by the AWB designed veterinary) and 9 for the treated group (the volume of one tumor was considered outlier). Results were reported as tumor volume increase, normalizing the value of each measurement to the baseline value of each sample and expressed as mean ± SEM. […]

[2] = Drug distribution to brain and liver in mice; type: in vivo, Swiss Albino mice; conditions: for Kp at 4 h / Kp at 8 h: male, Swiss Albino, mouse, ip, 10 mg/kg, ng/g normalized against ng/mL
Method: These studies were performed at the GVKBioscience Pvt. LTD Contract Research and Development Organization (CRDO). Animals were housed in cages with clean bedding. Adult Swiss Albino male mice (weight = 20–35 g) were maintained and monitored for good health in accordance with GVKBioscience Pvt. LTD Test Facility SOPs and at the discretion of the laboratory animal veterinarian. Certified rodent diet was provided, and water was available ad libitum. A periodic analysis of the water was performed, and the results have been archived at the Test Facility. Environmental controls for the animal room were set to maintain a temperature of 22 to 25 °C, humidity of 40–70% relative humidity, and a 12-h light/12-h dark cycle. Animals have been dosed i.v. with 1 mg/kg of FHP01 i.p. with 10 mg/kg of compound or p.o. through gastric gavage needle with 50 mg/kg of compound. Next, mice were anesthetized using gaseous anesthesia and blood samples were collected at each time point, from 3 mice of respective group. After collection of blood samples at each time point, the blood samples were stored on ice, prior to centrifugation. Blood samples were centrifuged at 1540 rcf (5000 rpm), 4 °C for 10 min to separate plasma. Plasma was transferred to pre-labeled micro-centrifuge tubes and promptly frozen at −80 °C until analysis. Samples have been identified by test item, group, animal number, and collection time point. A fit-for-purpose bioanalytical method was developed for analyzing the plasma samples. One set of nine standards have been run before the sample batch and used for plotting the calibration curve. Quality control (QC) samples have been prepared at a minimum of three concentrations, i.e., LQC (not more than 5 times to that of lowest standard concentration), HQC (not less than 75% of the highest standard concentration), and MQC (between the low and high concentration). Minimum of 6 QC samples (three concentrations in duplicate). One Set of QC (LQC, MQC, and HQC) samples have been analyzed before and after the sample batch.
For the analyses of drug distribution to brain and liver, whole body perfusion was performed using chilled saline in the defined group of animals followed by decapitation for tissue collection. The chest of the mice was exposed, the abdominal aorta was clamped, and both jugular veins were cut. Intra-cardial perfusion was performed through an insertion in the left ventricle. Mice brains and livers have been collected and immediately washed, dried, weighed and freeze at −80 °C until homogenization. The protocol has been reviewed and approved by the Institutional Animal Ethics Committee (IAEC).

[3] = Tolerability in xenograft study: body weight and organ histology; type: in vivo, athymic nude mice
Method: as §1, with “S1). […]” for “S1).”

MDA MB 468 cells = assay: Cell viability / cytotoxicity assay (cell counting); type: cell-based; conditions: Homo sapiens
Method: (§2) Cells were seeded at 3–5 × 10^4 cells/well density (depending on cell lines) in 12-well plates, in triplicate, and maintained at 37 °C in 5% CO2. After 24 h, cells were treated with different concentrations of indicated drugs in a range from 0 to 100 μM (0, 0.1, 1, 10, 50, 100 μM). […] Cell number of each sample was determined with Z2 Coulter Counter (Beckman Coulter, Brea, CA, USA), in triplicate. Data about cell viability were plotted in GraphPad Prism 8.0 software (GraphPad Software, San Diego, CA, USA) to draw dose-response curve and to calculate IC50.

MDA MB 231 cells = assay: as above; type: cell-based; conditions: Homo sapiens
Method: as §2

[4] = brain/plasma, i.p. administration, read-out: BRAIN/PLASMA
[5] = liver/plasma, i.p. administration, read-out: LIVER/PLASMA

## CCCCc1cn(-c2ccc(NC(=O)Nc3ccccc3C(F)(F)F)cc2)nn1 [FHP01]
[1]; Day 0 of the treatment
  mean tumor volume: 25.49± 4.58 mm^3
[1]; Day 18, control 73.40 ± 9.72
  mean tumor volume: 24.18 ± 4.44 mm^3
[1]; Day 28, control 129.85 ± 21.39
  mean tumor volume: 37.23 ± 11.45 mm^3
[1]; end of the procedure, 45 mg/kg i.p.
  effect size, decrease in tumor growth (control/treated): about 4 fold
[2]; 24 h after administration
  tissue concentration: below the level of quantitation
[2]; i.p. administration, 12h
  BRAIN/PLASMA: BLQ
  LIVER/PLASMA: BLQ
[2]; [4]
  Kp at 4 h: 0.5 ± 0.24
  Kp at 8 h: 3.14 ± 0.74
[2]; [5]
  Kp at 4 h: 3.75 ± 1.06
  Kp at 8 h: 6.32 ± 2.23
[3]; 45 mg/kg i.p. 3 times a week, all the treatment period
  animal body weight: No loss of animal body weight
[3]; after 4 weeks of i.p. treatment, 45 mg/kg
  histology of liver, brain, spleen and kidney: did not show any sign of toxicity
MDA MB 468 cells; MDA MB 468, 24h
  IC50: 12.7 µM
MDA MB 468 cells; MDA MB 468, 48h
  IC50: 3.48 µM
MDA MB 468 cells; MDA MB 468, 72 h
  IC50: 3.06 µM
MDA MB 231 cells; MDA MB 231, 24h
  IC50: 13.3 µM
MDA MB 231 cells; MDA MB 231, 48h
  IC50: 4.14 µM
MDA MB 231 cells; MDA MB 231, 72 h
  IC50: 3.21 µM

Reference: paper PMC8507746, “The FHP01 DDX3X Helicase Inhibitor Exerts Potent Anti-Tumor Activity In Vivo in Breast Cancer Pre-Clinical Models” (Cancers, 2021)
